The values below are quoted from earlier work in patent US11066448B2, “Zika as a cell penetrating peptide for delivery to the brain” (priority 2018, dated 2021).

The conditions of series [1]: enzymatic hydrolysis, doxorubicin release.
For series [2] the following is noted: human plasma; MMAE linked.

For Phe-Lys, the half-life of cleavage in series [1] is on record as 8 min. The “stability relative to Val-Cit” value in series [2] is reported as “substantially less stable”.

In the case of valine-citrulline [Val-Cit], the half-life of cleavage in series [1] is given as 240 min. Besides, the “stability relative to hydrazone linker” value in series [2] was “over 100 times”.

On to Val-Lys, for which, in series [1], the half-life of cleavage is given as 9 min.
